Results reported in patent publication US7745604B2, “Upstream control elements of the proopiomelanocortin gene and their use” (Oregon Health & Science University, priority 2001, dated 2010).
Values joined by “and” are separate entries in the source; they are usually repeats but may differ in a detail not shown here. Equal values may be shown once. “Also recorded” adds a separate entry of the source. Read-outs that look alike come from different tables or passages of the source. Non-standard residues stand in square brackets, D forms with d. No end group written: not given here.

Assays:
hypothalamic explants = conditions: Y2A; cited from earlier work
[1] = test system: GABAergic IPSCs in POMC neurons; assay: GABAergic IPSCs recorded in POMC neurons of ARC slices; assay type: cell-based, mouse
POMC neurons [2] = assay: Whole cell recordings of membrane potential of EGFP-labeled POMC neurons in ARC slices; assay type: cell-based, mouse
POMC neurons [3] = assay: Action potential frequency (firing rate) of POMC neurons, whole cell or loose cell-attached recordings; assay type: cell-based, mouse; conditions: for increase in frequency of action potentials (firing rate) in POMC neurons: fenfluramine 20 μM, loose-cell-attached, n=3, reversed with washout
[4] = test system: c-fos expression in the arcuate nucleus; assay: c-fos expression in arcuate nucleus of Pomc-EGFP mice after IP injection; assay type: in vivo, mouse; conditions: IP 5 μg/100 g, 2 hours
Description: Data were obtained from 5 mice in each group. For the Pomc-EGFP mice 5 anatomically matched arcuate nucleus sections (Franklin et al., The Mouse Brain in Stereotaxic Coordinates (Academic Press, San Diego, 1997) were counted from each animal, and images acquired using a Leica TSC confocal microscope (Grove et al., Neuroscience 100:731-40, 2000).

[5] = test system: non-POMC neurons in the arcuate nucleus; assay: Membrane potential of non-fluorescent (non-POMC) neurons in the ARC; assay type: cell-based, mouse
[6] = test system: c-fos expression in the arcuate nucleus; assay: c-fos expression in the lateral arcuate after IP injection, rat; assay type: in vivo; conditions: single IP injection

N-acetyl (Leu^28, Leu^31) NPY (24-36) [Y2A]
NPY release from hypothalamic explants (hypothalamic explants): significantly decreased NPY release
α-MSH release from hypothalamic explants (hypothalamic explants): increase in α-MSH release
reduction of IPSC frequency ([1]; Y2A, n=8, P<0.004): 44.4±9.3%

Clc1cccc(N2CCNCC2)c1 [mCPP, 1-(3-Chlorophenyl)piperazine]
effect on resting membrane potential of POMC neurons (POMC neurons [2]): depolarized POMC neurons

NCCc1c[nH]c2ccc(O)cc12 [serotonin]
effect on resting membrane potential of POMC neurons (POMC neurons [2]; serotonin receptor agonists bath-applied four minutes, whole cell, n=4-8 per dose): increased the resting membrane potential (depolarized)

D-Trp^8-γMSH (YVMGHFR[dW]DRFG)
effect on frequency of action potentials (POMC neurons [3]; D-Trp8-γMSH 7 nM): decreased the frequency of action potentials
POMC neurons hyperpolarized of cells tested (POMC neurons [2]; D-Trp8-γMSH 7 nM): 9 of 15
effect on membrane potential of POMC neurons (POMC neurons [2]; D-Trp8-γMSH, FIG. 4c): hyperpolarizes POMC neurons
POMC neurons with increased IPSC frequency of cells tested ([1]; D-Trp8-γMSH 7 nM): 3 of 4
effect on frequency of GABAergic IPSCs in POMC neurons ([1]; D-Trp8-γMSH 7 nM, FIG. 4b): increases the frequency of GABAergic IPSCs

Clc1cncc(N2CCNCC2)n1 [MK 212, 6-Chloro-2-(1-piperazinyl)pyrazine]
effect on resting membrane potential of POMC neurons (POMC neurons [2]): depolarized POMC neurons

NPY
average hyperpolarization of POMC neurons (POMC neurons [2]; NPY, n=3, all POMC neurons tested): 9±6 mV
cells in which IPSCs were still inhibited in the presence of tetrodotoxin (TTX) [1]: 6 of 6
decrease of frequency of GABAergic IPSCs ([1]; NPY 100 nM): 55%
time to decrease of IPSC frequency ([1]; NPY 100 nM): ≤ 3 min
effect on frequency of mini IPSCs in POMC neurons ([1]; NPY, FIG. 4a): decreases the frequency of mini IPSCs

CCNC(C)Cc1cccc(C(F)(F)F)c1 (stereo not drawn) [Fenfluramine]
increase in frequency of action potentials (firing rate) in POMC neurons (POMC neurons [3]): two fold increase
increase in frequency of action potentials (firing rate) in POMC neurons (POMC neurons [3]; listed as d-FEN): doubling
effect on membrane potential of POMC neurons (POMC neurons [2]; fenfluramine, whole cell, dose dependent, n=4-8 per dose): depolarized POMC neurons

Ghrelin: known appetite stimulant; agent known to increase feeding, caloric intake, and appetite (GSSFLSPEHQRVQQRKESKKPPAKLQPR; ends and bridges not checked; UniProt Q9UBU3 24-51, looked up)
decrease of action potential firing rate of POMC neurons (POMC neurons [3]; Ghrelin 50 nM, loose-cell-attached mode, reverses with washout): 50%
mean hyperpolarization of POMC neurons (POMC neurons [2]; Ghrelin 50 nM, three minutes, whole cell, p<0.03): 1.47±0.7 mV
effect on membrane potential of POMC neurons (POMC neurons [2]; Ghrelin, whole cell, FIG. 12b, 34 experiments): mildly hyperpolarizes POMC neurons
effect on frequency of IPSCs in POMC neurons ([1]; Ghrelin 50 nM, whole cell): increase in the frequency of IPSCs; also recorded: increases the frequency of spontaneous synaptic GABA release onto POMC neurons

met-enkephalin
effect on spontaneous action potentials of POMC cells (POMC neurons [3]): inhibits all action potentials; also recorded: prevented spontaneous action potential generation
effect on membrane potential of POMC neurons (POMC neurons [2]): hyperpolarizes POMC neurons

PYY3-36
increase in frequency of action potentials (POMC neurons [3]; PYY3-36 10 nM, loose cell-attached, reversible, n=8): 5 fold
increase in frequency of action potentials over control (POMC neurons [3]; PYY3-36 10 nM, whole-cell, n=22, P<0.05): 93%
increase in number of arcuate cells positive for c-fos vs saline [4]: 1.8 fold
increase in proportion of POMC neurons that express c-fos vs saline [4]: 2.6 fold
number of arcuate cells positive for c-fos ([4]; n=5, P<0.05): 250±40
POMC neurons depolarized of cells tested (POMC neurons [2]; PYY3-36, whole cell): 19 of the 22
hyperpolarization of unidentified, presumably NPY-containing, non-POMC neurons ([5]; PYY3-36 25 nM, n=5, P<0.004): 5.2±1.16 mV
increase in number of cells positive for c-fos vs saline [6]: 2 fold

NC1=N[C@H](O)[C@H]2[C@H]3O[C@]4(O)O[C@@H]([C@@H](O)[C@@]2(N1)[C@@H]4O)[C@]3(O)CO [TTX, tetrodotoxin]
effect on large amplitude IPSCs [1]: abolished large IPSCs

leptin: adipostatic hormone
effect on frequency of action potentials (POMC neurons [3]; leptin, FIG. 3a, 77 POMC neurons): increases the frequency of action potentials
mean±s.e.m. depolarization (POMC neurons [2]; 100 nM leptin, n=45): 9.7±1.2 mV
reversal potential of small inward current causing depolarization (POMC neurons [2]; leptin 100 nM, slow voltage ramps): approximately −20 mV
POMC cells depolarized of cells tested (POMC neurons [2]; leptin 0.1-100 nM): 72 of 77
depolarization of POMC cells (POMC neurons [2]; leptin 0.1-100 nM): 3-30 mV
time to depolarization after addition (POMC neurons [2]; leptin 0.1-100 nM): 1 to 10 min and 2 to 10 min
adjacent non-fluorescent cells with no effect ([5]; leptin, 13 cells tested): 5 and 5 of 13
non-POMC ARC neurons depolarized ([5]; leptin, 13 cells tested): 3
non-fluorescent ARC neurons hyperpolarized ([5]; leptin, 13 cells tested): 5
cells in which IPSCs were still inhibited in the presence of tetrodotoxin (TTX) [1]: 3 of 5
POMC cells with decreased IPSC frequency of cells tested ([1]; leptin 100 nM): 5 out of 15
effect on frequency of IPSCs in POMC cells ([1]; leptin 100 nM, FIG. 3d, 5 cells): decreased the frequency of IPSCs
decrease of frequency of GABAergic IPSCs ([1]; leptin 100 nM, in responding cells): 25%

picrotoxin
effect on IPSCs [1]: blocked all IPSCs
